In PubChem BioAssay AID198 (DTP/NCI, 2004):
Where “and” joins values, the source holds several entries; their conditions need not be identical. Equal entries are not always repeated. Toxic doses and inconclusive results are not listed. *1 amine or outer side, *2 acyl side, *3 side chain or, on linkers, in order; H or OH if unused. Where a SMILES comes first, the peptide text is derived from it. Bridges are numbered along the chain shown (N, C = ends). Roman numbers before positions name the chains, in order. [ ]: non-standard residue; d: D form. Actinocin(9to1) = Cc1c2oc3c(C)ccc(C(=O)[*:1])c3nc-2c(C(=O)[*:2])c(N)c1=O; aThr = C[C@H](O)[C@H](N)C(=O)O; NMeV = CN[C@H](C(=O)O)C(C)C; Sar = CNCC(=O)O

Tested on: B16 melanoma ip, C57BL/6 mice, median survival T/C
Experiment: NCI In Vivo Anticancer Drug Screen. Data for tumor model B16 Melanoma (intraperitoneal) in C57BL/6 mice
Conditions: endpoint: median survival time, higher = longer survival
Method: The antitumor activity of compounds was measured in mice bearing transplantable tumors. Survival or tumor size were measured and the results are expressed as the measurement made in the treated group (T) divided by the measurement made in the vehicle treated control group (C). The tumor model used in this assay is B16 Melanoma (intraperitoneal) in C57BL/6 mice

[1] = dose: 12.5 mg/kg/injection, schedule: Q01DX009 (ip), vehicle: saline
[2] = dose: 25.0 mg/kg/injection, schedule: Q01DX009 (ip), vehicle: saline with Tween-80
[3] = dose: 25.0 mg/kg/injection, schedule: Q01DX009 (ip), vehicle: saline
[4] = dose: 50.0 mg/kg/injection, schedule: Q01DX009 (ip), vehicle: saline with Tween-80
[5] = dose: 50.0 mg/kg/injection, schedule: Q01DX009 (ip), vehicle: saline
[6] = dose: 100.0 mg/kg/injection, schedule: Q01DX009 (ip), vehicle: saline with Tween-80
[7] = dose: 100.0 mg/kg/injection, schedule: Q01DX009 (ip), vehicle: saline
[8] = dose: 200.0 mg/kg/injection, schedule: Q01DX009 (ip), vehicle: saline with Tween-80
[9] = dose: 200.0 mg/kg/injection, schedule: Q01DX009 (ip), vehicle: saline
[10] = dose: 62.5 mg/kg/injection, schedule: Q01DX009 (ip), vehicle: saline
[11] = dose: 125.0 mg/kg/injection, schedule: Q01DX009 (ip), vehicle: saline
[12] = dose: 3.13 mg/kg/injection, schedule: Q01DX009 (ip), vehicle: saline
[13] = dose: 6.25 mg/kg/injection, schedule: Q01DX009 (ip), vehicle: saline
[14] = dose: 250.0 mg/kg/injection, schedule: Q01DX009 (ip), vehicle: saline
[15] = dose: 500.0 mg/kg/injection, schedule: Q01DX009 (ip), vehicle: saline
[16] = dose: 0.1 mg/kg/injection, schedule: Q01DX009 (ip), vehicle: saline
[17] = dose: 0.2 mg/kg/injection, schedule: Q01DX009 (ip), vehicle: saline

Structure (SMILES): O=C1CN=C(c2ccc[nH]2)c2cc(Cl)ccc2N1
- T/C [1]: 107 % of control
- T/C [2]: 107 % of control
- T/C [3]: 105 % of control
- T/C (dose: 50.0 mg/kg/injection, schedule: Q01DX001 (ip), vehicle: saline): 100 % of control
- T/C [4]: 100 % of control
- T/C [5]: 97 % of control
- T/C (dose: 100.0 mg/kg/injection, schedule: Q01DX001 (ip), vehicle: saline): 100 % of control
- T/C [6]: 103 % of control
- T/C [7]: 97 % of control
- T/C (dose: 200.0 mg/kg/injection, schedule: Q01DX001 (ip), vehicle: saline): 97 % of control
- T/C [8]: 107 % of control
- T/C [9]: 112 % of control
- T/C (dose: 400.0 mg/kg/injection, schedule: Q01DX001 (ip), vehicle: saline): 102 % of control

Structure (SMILES): COc1cc(/C=N\O)nc(-c2ccccn2)c1
- T/C [3]: 100 % of control
- T/C [5]: 106 % of control
- T/C [7]: 93 % of control

Structure (SMILES): CN(C)/N=N/c1nc[nH]c1C(N)=O
- T/C [3]: 116 % of control
- T/C [5]: 120 % of control
- T/C [7]: 150 % of control

Structure (SMILES): Nc1nc(CCl)nc(Nc2ccccc2)n1
- T/C [6]: 96 % of control
- T/C [8]: 100 % of control

Structure (SMILES): C=CCN(CC=C)c1ncnc2[nH]ncc12
- T/C (dose: 15.6 mg/kg/injection, schedule: Q01DX009 (ip), vehicle: saline): 105 % of control
- T/C (dose: 31.3 mg/kg/injection, schedule: Q01DX009 (ip), vehicle: saline): 100 % of control
- T/C [10]: 102 % of control
- T/C [11]: 102 % of control

Structure (SMILES): COc1cc(N(CCCl)CCCl)ccc1NC(=O)c1ccccc1
- T/C (dose: 1.56 mg/kg/injection, schedule: Q01DX009 (ip), vehicle: saline): 102 % of control
- T/C [12]: 115 % of control
- T/C [13]: 115 % of control

Structure (SMILES): CCOC(N)=O
- T/C [11]: 100 % of control
- T/C [14]: 107 % of control
- T/C [15]: 100 % of control

Structure (SMILES): O=c1[nH]c(=O)c2n[nH]nc2[nH]1
- T/C [10]: 96 % of control
- T/C [11]: 100 % of control
- T/C [14]: 92 % of control
- T/C [15]: 92 % of control

Structure (SMILES): Cc1c2oc3c(C)ccc(C(=O)N[C@@H]4C(=O)N[C@H](C(C)C)C(=O)N5CCC[C@H]5C(=O)N(C)CC(=O)N(C)[C@@H](C(C)C)C(=O)O[C@H]4C)c3nc-2c(C(=O)N[C@@H]2C(=O)N[C@H](C(C)C)C(=O)N3CCC[C@H]3C(=O)N(C)CC(=O)N(C)[C@@H](C(C)C)C(=O)O[C@H]2C)c(N)c1=O (I: [aThr][dV]P[Sar][NMeV] / II: [aThr][dV]P[Sar][NMeV]; ester I:1-I:C, II:1-II:C; linker I:N-II:N via Actinocin(9to1))
- T/C (dose: 0.03 mg/kg/injection, schedule: Q01DX009 (ip), vehicle: saline): 150 % of control and 165 % of control
- T/C (dose: 0.05 mg/kg/injection, schedule: Q01DX009 (ip), vehicle: saline): 156 % of control and 164 % of control and 193 % of control
- T/C [16]: 203 % of control
- T/C [17]: 117 % of control

Structure (SMILES): c1ccc2sc(SSN3CC4CCC(CC4)C3)nc2c1
- T/C (dose: 12.5 mg/kg/injection, schedule: Q01DX009 (ip), vehicle: saline with Tween-80): 100 % of control
- T/C [2]: 94 % of control
- T/C [4]: 94 % of control
- T/C [6]: 89 % of control
- T/C [8]: 88 % of control

Structure (SMILES): CN1Cc2c(ccc3c2OCO3)[C@@H]2[C@H](O)Cc3cc4c(cc3[C@@H]21)OCO4
- T/C (dose: 62.5 mg/kg/injection, schedule: Q01DX009 (ip), vehicle: saline with Tween-80): 107 % of control
- T/C (dose: 125.0 mg/kg/injection, schedule: Q01DX009 (ip), vehicle: saline with Tween-80): 110 % of control
- T/C (dose: 250.0 mg/kg/injection, schedule: Q01DX009 (ip), vehicle: saline with Tween-80): 117 % of control

Structure (SMILES): CC1OC(O[C@@H]2C=C3CC[C@@H]4[C@H](CC[C@]5(C)[C@@H](c6ccc(=O)oc6)CC[C@]45O)[C@@]3(C)CC2)C(O)C(O)C1O (stereo partly drawn)
- T/C (dose: 2.5 mg/kg/injection, schedule: Q01DX009 (sc), vehicle: steriod suspending solution): 113 % of control
- T/C (dose: 5.0 mg/kg/injection, schedule: Q01DX009 (sc), vehicle: steriod suspending solution): 97 % of control

Structure (SMILES): S=c1nc[nH]c2nc[nH]c12
- T/C (dose: 7.5 mg/kg/injection, schedule: Q01DX009 (ip), vehicle: saline): 93 % of control and 100 % of control
- T/C (dose: 15.0 mg/kg/injection, schedule: Q01DX009 (ip), vehicle: saline): 90 % of control and 93 % of control
- T/C (dose: 30.0 mg/kg/injection, schedule: Q01DX009 (ip), vehicle: saline): 93 % of control
- T/C (dose: 60.0 mg/kg/injection, schedule: Q01DX009 (ip), vehicle: saline): 93 % of control

Structure (SMILES): CC1([N+](=O)[O-])COP(=O)(NC2CCCC2)OC1 (stereo not drawn)
- T/C [5]: 100 % of control
- T/C [7]: 96 % of control
- T/C [9]: 96 % of control

Structure (SMILES): O=c1[nH]cc(N(CCCl)CCCl)c(=O)[nH]1
- T/C (dose: 1.5 mg/kg/injection, schedule: Q01DX009 (ip), vehicle: saline): 87 % of control and 106 % of control

Structure (SMILES): CC[C@H]1CN2CCc3cc(OC)c(OC)cc3[C@@H]2C[C@@H]1C[C@H]1NCCc2cc(OC)c(OC)cc21
- T/C (dose: 1.0 mg/kg/injection, schedule: Q03DX005 (ip), vehicle: saline): 106 % of control
- T/C (dose: 2.0 mg/kg/injection, schedule: Q03DX005 (ip), vehicle: saline): 109 % of control
- T/C (dose: 16.0 mg/kg/injection, schedule: Q03DX005 (ip), vehicle: saline): 87 % of control

Structure (SMILES): O=C(O)CCCc1ccc(N(CCCl)CCCl)cc1
- T/C [12]: 96 % of control and 103 % of control
- T/C [13]: 100 % of control and 114 % of control
- T/C [1]: 106 % of control and 112 % of control
- T/C [3]: 86 % of control

Structure (SMILES): CC[C@]1(O)C[C@H]2CN(CCc3c([nH]c4ccccc34)[C@@](C(=O)OC)(c3cc4c(cc3OC)N(C=O)[C@H]3[C@@](O)(C(=O)OC)[C@H](OC(C)=O)[C@]5(CC)C=CCN6CC[C@]43[C@@H]65)C2)C1
- T/C (dose: 0.06 mg/kg/injection, schedule: Q01DX009 (ip), vehicle: saline): 182 % of control
- T/C (dose: 0.13 mg/kg/injection, schedule: Q01DX009 (ip), vehicle: saline): 189 % of control

Structure (SMILES): CC1CC(C)(O)CC(C(O)CC2CC(=O)NC(=O)C2)C1=O (stereo not drawn)
- T/C [16]: 111 % of control
- T/C [17]: 122 % of control
- T/C (dose: 0.4 mg/kg/injection, schedule: Q01DX009 (ip), vehicle: saline): 116 % of control
- T/C (dose: 0.8 mg/kg/injection, schedule: Q01DX009 (ip), vehicle: saline): 86 % of control

Structure (SMILES): COc1cc(NS(C)(=O)=O)ccc1Nc1c2ccccc2nc2ccccc12
- T/C (dose: 0.5 mg/kg/injection, schedule: Q01DX009 (ip), vehicle: water): 160 % of control
- T/C (dose: 1.0 mg/kg/injection, schedule: Q01DX009 (ip), vehicle: Klucel (hydroxypropylcellulose) (HPC)): 172 % of control
- T/C (dose: 2.0 mg/kg/injection, schedule: Q01DX009 (ip), vehicle: Klucel (hydroxypropylcellulose) (HPC)): 179 % of control
- T/C (dose: 2.0 mg/kg/injection, schedule: Q01DX009 (ip), vehicle: water): 222 % of control
- T/C (dose: 4.0 mg/kg/injection, schedule: Q01DX009 (ip), vehicle: water): 246 % of control

Structure (SMILES): COc1cc2c(cc1OC)C(c1cc(OC)c(OC)c(OC)c1)C1(O)C(=O)OCC1(O)C2 (stereo not drawn)
- T/C [5]: 93 % of control
- T/C [7]: 93 % of control
- T/C [9]: 86 % of control
- T/C (dose: 400.0 mg/kg/injection, schedule: Q01DX009 (ip), vehicle: saline): 86 % of control

Structure (SMILES): CO[C@H]1/C=C/O[C@@]2(C)Oc3c(C)c(O)c4c(O)c(c(/C=N/N5CCN(C)CC5)c(O)c4c3C2=O)NC(=O)/C(C)=C\C=C\[C@H](C)[C@H](O)[C@@H](C)[C@@H](O)[C@@H](C)[C@H](OC(C)=O)[C@@H]1C
- T/C [5]: 106 % of control
- T/C [7]: 109 % of control
- T/C [9]: 112 % of control

Structure (SMILES): O=c1[nH]c(=O)n(C2CC(O)C(CO)O2)cc1F (stereo not drawn)
- T/C (dose: 10.0 mg/kg/injection, schedule: Q01DX009 (ip), vehicle: saline): 113 % of control
- T/C (dose: 20.0 mg/kg/injection, schedule: Q01DX009 (ip), vehicle: saline): 120 % of control
- T/C (dose: 40.0 mg/kg/injection, schedule: Q01DX009 (ip), vehicle: saline): 123 % of control
- T/C (dose: 80.0 mg/kg/injection, schedule: Q01DX009 (ip), vehicle: saline): 154 % of control
- T/C (dose: 160.0 mg/kg/injection, schedule: Q01DX009 (ip), vehicle: saline): 151 % of control

Structure (SMILES): CCc1nc(N)nc(N)c1-c1ccc(Cl)cc1
- T/C [3]: 96 % of control
- T/C [5]: 100 % of control
- T/C [7]: 93 % of control
- T/C [9]: 113 % of control

Structure (SMILES): NC(=O)Oc1cc(OC(N)=O)cc(N(CCCl)CCCl)c1
- T/C [1]: 110 % of control
- T/C [5]: 123 % of control
